{"source": "patent US20230372355A1", "about": "(AXSOME THERAPEUTICS, INC., priority 2022, published 2023)", "key": {"[1]": {"system": "patients with moderate and severe migraine", "settings": "human, in vivo"}, "[2]": {"system": "patients with moderate and severe migraine and a history of inadequate response to prior acute treatments", "experiment": "Phase 3 randomized, double-blind, placebo- and active-controlled trial, acute treatment of moderate and severe migraine (Example 1), efficacy", "assay_type": "in vivo, human", "source_text": "Exclusion criteria included cluster headaches or other types of migraines, chronic daily headache 15 non-migraine headache days per month), history of significant cardiovascular disease, and uncontrolled hypertension."}}, "data": [{"compound": "CN(C)CCc1c[nH]c2ccc(Cn3cncn3)cc12", "note": "[rizatriptan, Rizatriptan]", "values": [{"measurement": "Any Treatment-Emergent Adverse Event, % of subjects", "setting": "[1]", "result": 15.4, "unit": "%"}, {"measurement": "Any Treatment-Emergent Adverse Event, number of subjects", "setting": "[1]", "result": 67}, {"measurement": "Dizziness, % of subjects", "setting": "[1]", "result": 2.1, "unit": "%"}, {"measurement": "Dizziness, number of subjects", "setting": "[1]", "result": 9}, {"measurement": "Nausea, % of subjects", "setting": "[1]", "result": 4.8, "unit": "%"}, {"measurement": "Nausea, number of subjects", "setting": "[1]", "result": 21}, {"measurement": "Somnolence, % of subjects", "setting": "[1]", "result": 2.1, "unit": "%"}, {"measurement": "Somnolence, number of subjects", "setting": "[1]", "result": 9}, {"measurement": "percentage of patients experiencing sustained pain relief from 2 hours to 24 hours after dosing", "setting": "[2]; 2-24 hours", "result": 43.9, "unit": "%"}, {"measurement": "proportion of patients with sustained pain freedom from 2 hours to 48 hours", "setting": "[2]; 2-48 hours", "result": 8.8, "unit": "%"}, {"measurement": "proportion of patients experiencing pain relief […] after dosing", "setting": "[2]; […] after dosing", "result": 52.5, "unit": "%"}]}]}
